The results in this text go back to patent US8236820B2, “Anti-inflammatory compounds and uses thereof” (priority 2007, dated 2012).

Molecules are shown by their SMILES.

One data set concerns MCF-7. The data set can be described thus: Cell viability (MTT) assay, 24-h IC50, MCF-7. In kind it is cell-based, human. The note with it: Homo sapiens, MCF7, 24 h, read-out: 24-h IC50.
Another data set deals with SW480 cells. The data set can be described thus: Polyamine levels in SW480 cells. It counts as cell-based, human. The source says:
Further evidence of the synergy between the two compounds was provided by their effect on polyamine levels. Conventional sulindac is known to reduce polyamine levels in colon cancer cells (Yerushalmi et al. Role of polyamines in arginine-dependent colon carcinogenesis in Apc(Min) (/+) mice. Mol Carcinog 2006; 45(10):764-73.; Choi et al. Combination of 5-fluorouracil and N1,N11-diethylnorspermine markedly activates spermidine/spermine N1-acetyltransferase expression, depletes polyamines, and synergistically induces apoptosis in colon carcinoma cells. J Biol Chem 2005; 280(5):3295-304; and Basuroy and Gerner. Emerging concepts in targeting the polyamine metabolic pathway in epithelial cancer chemoprevention and chemotherapy. J Biochem (Tokyo) 2006; 139(1):27-33).

The test system of data set [1] is spermidine/spermine N^1-acetyltransferase (SSAT). The data set can be described thus: SSAT enzymatic activity in SW480 cells. In kind it is cell-based, human. On the procedure: SW480 cells were incubated without or with phospho-sulindac I (P-S) for up to 24 h and SSAT activity was determined at each time point by determining the amount of labelled N1-acetylspermidine synthesized from [^14C]acetyl-CoA and unlabeled spermidine.
The effect of phospho-sulindac I on polyamines is mediated, at least in part, by activation of SSAT by phospho-sulindac I. It is known that conventional sulindac induces SSAT activity (Babbar et al., Cyclooxygenase-independent induction of apoptosis by sulindac sulfone is mediated by polyamines in colon cancer. J Biol Chem 2003; 278(48):47762-75.). Incubation of HT-29 and SW480 cells with 85 μM phospho-sulindac I for 24 h leads to a 3- and 4.4-fold increase of SSAT activity (P<0.05 versus control), respectively. On the other hand, incubation with sulindac led to a 1.5 and 2.5-fold increase of SSAT activity (P<0.05 versus control) in HT-29 and SW480 cells, respectively.

Data set [2] is classed as in vivo. The note with it: 5 days oral gavage. On the procedure:
Phospho-sulindac I lacked gastrointestinal toxicity in mice; gastrointestinal toxicity is the major side effect of sulindac as well as of the entire class of NSAIDs. We evaluated in mice the potential toxicity of phospho-sulindac I. Three groups, each consisting of 8 female C57BL/6J+/+mice 6 wks of age, were treated for 5 days by oral gavage with equimolar amounts of phospho-sulindac I (317 mg/kg/d) or conventional sulindac (200 mg/kg/day) or vehicle. Mice were weighed at time 0 and on days 3 and 5. Mice surviving to the end of the study were euthanized and necropsied.
The stomachs of sulindac-treated animals were larger than those of the other two groups and in some the liver appeared hyperemic.

Another data set relates to SW480 colon cancer cells. As to the kind of experiment: Nude mice xenograft study. In kind it is in vivo. The following applies: 50 mg/kg/day gavage, 14 days. On the procedure:
Nude mice xenograft study: Female nude mice CByJ.Cg-Foxn1 (5-6 weeks-old) were inoculated subcutaneously in their lower right flank with 1.5×10^6 SW480 colon cancer cells in a volume of 100 μl (containing 50% matrigel in PBS). Seven days later, animals were randomized into two groups (8 mice/group): group 1 received vehicle (1% (w/v) carboxy methylcellulose); group 2 received 50 mg/kg/day phospho-sulindac I. All drugs were administered in a solution of 1% (w/v) carboxy methylcellulose by gavage once daily (phospho-sulindac I and sulindac concentrations are equimolar). Tumors were measured twice a week with a digital microcaliper, and tumor volume (TV) was calculated using the formula: TV=[L×W×(L+W/2)×0.56], where L=length and W=width of tumor. After 14 days of treatment, animals were sacrificed, and tumors were removed and weighed.

In another data set the test system is HT-29 cells. The data set can be described thus: Cell cycle analysis, DFMO and phospho-sulindac I, 48 h. The following applies: DFMO 5 mM, phospho-sulindac I 40 μM. It counts as cell-based, human. On the procedure:
(§1) A—Left panel: Cell viability was determined in HT-29 (full bars) and SW-480 (empty bars) cells after 48 h of incubation with 5 mM DFMO, 40 μM phospho-sulindac (P-S) or simultaneous combination of DFMO and P-S. Data are expressed as percentage of control cells (cells incubated only with DMSO). […] Right panel: In this isobologram the additivity line connects the IC50 value of each compound used alone. A and B represent two different dose pairs of each compound (their respective concentrations are shown in parentheses). The location of both A and B below the additivity line signifies synergy. […] DNA content was determined from propidium iodide (PI) fluorescence. C—Apoptosis and necrosis were determined by combined staining with annexin V and PI and determining fluorescence intensity. The percentages of apoptotic cells were determined using the dual staining with annexin V and propidium iodide and are indicated in each quadrant: left bottom quadrant, viable cells (annexin V-negative/PI-negative); right bottom quadrant, early apoptotic cells (annexin V-positive/PI-negative); right upper quadrant, late apoptotic cells (annexin V-positive/PI-positive); left upper quadrant, necrotic cells (annexin V-negative, PI-positive). […]

The test system of a further data set is SW480. The data set can be described thus: DFMO / phospho-sulindac I synergy, cell growth at 48 h, SW480. In kind it is cell-based, human. The following applies: SW480, 48 h; DFMO 5 mM, phospho-sulindac I 40 μM. On the procedure: as §1

Turning to `CCOP(=O)(OCC)OCCCCOC(=O)CC1=C(C)/C(=C/c2ccc([S+](C)[O-])cc2)c2ccc(F)cc21` (centres unmarked) [Phospho-sulindac I], in the data set on MCF-7, the IC50 stood at 62 µM. In the data set on SW480 cells, the level of putrescine is 91 % of control values, the level of spermidine is given as 34 % of control values and the level of spermine is 9 % of control values. The “induction of SSAT compared to vehicle-treated controls” value in data set [1] (SW480, 85 μM, 12 h of incubation) stood at 4 fold. Besides, in data set [1] (SW480, 85 μM, 18 h of incubation), the “maximum increase of SSAT” value turned out to be 5.5 fold. Moreover, the “increase of SSAT activity” value in data set [1] (SW480, 24 h, phospho-sulindac I 85 μM, P<0.05 versus control) stood at 4.4 fold. Also, in data set [2] (317 mg/kg/d), the “inspection of the heart, lungs, spleen, kidneys and liver” value is recorded as “no abnormalities”. In data set [2] (phospho-sulindac I 317 mg/kg/d, sulindac 200 mg/kg/day), the “gastrointestinal or other toxicity (necropsy)” value was “no evidence of gastrointestinal or other toxicity”. In addition, the mortality in data set [2] (phospho-sulindac I 317 mg/kg/d, sulindac 200 mg/kg/day, 8 mice/group) came out at 0%. Besides, in data set [2] (phospho-sulindac I 317 mg/kg/d, sulindac 200 mg/kg/day, start 16.3±1.2, mean±SD), the “body weight at end of study” value came out at 15.7 ± 1.2 g. In addition, the “tolerability in xenograft study” value with SW480 colon cancer cells is given as “no weight loss or other signs of toxicity were observed”. Also, the mean tumor weight in the data set on SW480 colon cancer cells (mean±SEM, vehicle 0.246±0.041) was determined as 0.097±0.018. Besides, the “reduction in tumor weight” value in the data set with SW480 colon cancer cells (vs vehicle, p<0.05) was 60%. Also, in the data set on HT-29 cells, the G1 population arrest came to 75% and the S phase is recorded as 13.6%. Also, the “reduction in cell number” value in the data set with SW480 turned out to be 45%.
